Measured values: patent publication US7863283B2, “Sulphoximine-substituted quinazoline derivatives as immuno-modulators, their preparation and use as medicaments” (Bayer Schering Pharma AG, priority 2008, dated 2011)

What was measured:
TNF-α = assay: TLR-induced cytokine release in human PBMC: TNF-alpha (ELISA); assay type: cell-based; settings: human PBMC stimulated using a TLR ligand, incubated 18 hours with test substance, supernatant ELISA
Procedure: (§1) TLR-Induced Cytokine Release in Human “Peripheral Blood Mononuclear Cells” (PBMC)
(§2) PBMCs isolated from human whole blood are stimulated using a TLR ligand. The cytokine determination is carried out by means of ELISA kits; a proliferation/cell metabolism determination is carried out using Alamar Blue.
(§3) For the cell preparation, about 200 ml of blood are treated with an anticoagulant (e.g. citrate Monovettes). Per Leucosep tube, 15 ml of Histopaque (room temperature, RT) are poured in and pressed downwards through the frit employed by brief initial centrifugation (one minute at 1000×g, RT). 20 ml of blood are added to the tubes prepared in this way and centrifuged at 800×g for 15 minutes (RT). After centrifugation, the following layered arrangement results from the top to the bottom: plasma—PBMC—Histopaque—filter disc—Histopaque—erythrocytes and granulocytes. The supernatant plasma is aspirated. The PBMC are transferred together with the underlying Histopaque to a new 50 ml tube, the contents of two Leucosep tubes always being added to one 50 ml tube. The 50 ml tubes are then filled to 50 ml with PBS. This cell suspension is centrifuged at 300×g (RT) for 10 minutes. The liquid supernatant is tipped off and the cell pellet is resuspended with a little PBS and subsequently filled to 50 ml with PBS. This washing step is repeated twice. The resulting pellet is taken up in a defined volume of medium (with additives). For the testing of the substances, PBMC are incubated for 18 hours with titrated concentrations of the test substances, e.g. in the presence or absence of TLR ligands. On the next day, the supernatants are investigated for the content of IL-12, TNF-alpha or other chemokines by means of specific ELISA. The metabolic activity of the treated cells is determined with the aid of Alamar Blue.

IL-12 = assay: TLR-induced cytokine release in human PBMC: IL-12 (ELISA); assay type: cell-based; settings: human PBMC stimulated using a TLR ligand, incubated 18 hours with test substance, supernatant ELISA
Procedure: as §1, §2, §3

Structure (SMILES) | IC50 (TNF-α) [µM] | IC50 (IL-12) [µM]
CCS(=N)(=O)c1cccc(COc2cc3ncnc(NC(C)C)c3cc2OC)c1 (racemic) [Example 2.10, (RS)-S-Ethyl-S-[3-({[4-(isopropylamino)-6-methoxyquinazolin-7-yl]oxy}-methyl)phenyl]sulphoximide] | 0.2 | 0.4
CC(C)Nc1ncnc2cc(OCc3cncc(S(C)(=N)=O)c3)c(Br)cc12 (racemic) [Example 3.7, (RS)-S-[5-({[6-Bromo-4-(isopropylamino)quinazolin-7-yl]oxy}methyl)pyridin-3-yl]-S-methylsulphoximide] | 1 | 4
COc1cc2c(NC(C)C)ncnc2cc1OCCCS(C)(=N)=O (racemic) [Example 3.4, (RS)-S-(4-{[4-(Isopropylamino)-6-methoxyquinazolin-7-yl]oxy}propyl)-S-methyl-sulphoximide] | 10 | 15
CC(C)Nc1ncnc2cc(OCc3cccc(S(C)(=N)=O)c3)c(Br)cc12 (racemic) [Example 1.2, (RS)-S-[3-({[6-Bromo-4-(isopropylamino)quinazolin-7-yl]oxy}methyl)phenyl]-S-methylsulphoximide] | 2.1 | 4.1
CC(C)Nc1ncnc2cc(OCc3ccc(S(C)(=N)=O)cc3)c(Br)cc12 (racemic) [Example 2.8, (RS)-S-[4-({[6-Bromo-4-(isopropylamino)quinazolin-7-yl]oxy}methyl)phenyl]-S-methylsulphoximide] | 4 | 15
